The values that follow come from patent US12528818B2, “Compositions and methods for inhibition of RAS” (Leidos Biomedical Research, Inc., priority 2021, dated 2026).

The test system of this assay is pERK in NCI-H358 cells. The assay is described as follows: Cell-based pERK HTRF assay (pERK inhibition in H358 cells). Conditions: Homo sapiens, NCI-H358, 0.5 h, pERK inhibition IC50, NCI-H358 cells, 30 min incubation; read-out: PERK in H358 cell.

Take `C=CC(=O)N1CC[C@@H](N(CC)c2nc(OC[C@@]34CCCN3C[C@H](F)C4)nc3c(F)c(-c4ccc(F)c5sc(N)c(C#N)c45)c(C(F)(F)F)cc23)C1` [Compound 348, 4-(4-(((R)-1-acryloylpyrrolidin-3-yl)(ethyl)amino)-8-fluoro-2-(((2R,7aS)-2-fluorotetrahydro-1H-pyrrolizin-7a(5H)-yl)methoxy)-6-(trifluoromethyl)quinazolin-7-yl)-2-amino-7-fluorobenzo[b]thiophene-3-carbonitrile]: the IC50 was less than 100 nM.

On to `C=CC(=O)N1C[C@H](C)N(c2nc(OC[C@@]34CCCN3C[C@H](F)C4)nc3c(F)c(-c4ccc(F)c5sc(N)c(C#N)c45)c(C(F)(F)F)cc23)C[C@@H]1C` [Compound 349], for which the IC50 is less than 100 nM.

As to `C=CC(=O)N1C[C@@H](F)[C@@H](N(C)c2nc(OC[C@@H]3C[C@@H](OC)CN3C)nc3cc(-c4ccc(F)c5sc(N)nc45)c(C(F)(F)F)cc23)C1` [Compound 350], the IC50 is less than 100 nM.

Take `C=CC(=O)N1C[C@@H](F)[C@@H](N(C)c2nc(OC[C@@H]3CC4(CC4)CN3C)nc3cc(-c4ccc(F)c5sc(N)nc45)c(C(F)(F)F)cc23)C1` [Compound 351]: the IC50 was less than 100 nM.

For the compound `C=CC(=O)N1CC[C@@H](N(CC)c2nc(OC[C@@]34CCCN3C[C@H](F)C4)nc3cc(-c4ccc(F)c5sc(N)c(C#N)c45)c(C(F)(F)F)cc23)C1` [Compound 352], the IC50 is less than 100 nM.

Consider `C=CC(=O)N1C[C@@H](F)[C@@H](N(C)c2nc(OC[C@@]34CCCN3C[C@H](F)C4)nc3c(F)c(-c4ccc(F)c5sc(N)nc45)ccc23)C1` [Compound 353], for which the IC50 was less than 100 nM.

Consider `C=CC(=O)N1CC[C@@H](N(C)c2nc(OC[C@@]34CCCN3C[C@H](F)C4)nc3cc(-c4ccc(F)c5sc(N)c(C#N)c45)c(C(F)(F)F)cc23)[C@H]1C` [Compound 354, 4-(4-(((2R,3R)-1-acryloyl-2-methylpyrrolidin-3-yl)(methyl)amino)-2-(((2R,7aS)-2-fluorotetrahydro-1H-pyrrolizin-7a(5H)-yl)methoxy)-6-(trifluoromethyl)quinazolin-7-yl)-2-amino-7-fluorobenzo[b]thiophene-3-carbonitrile], for which the IC50 is less than 100 nM.

As for `C=CC(=O)N1C[C@@H](F)[C@@H](N(C)c2nc(OC[C@@H]3C[C@@H](F)CN3C)nc3cc(-c4ccc(F)c5sc(N)nc45)c(C(F)(F)F)cc23)C1` [Compound 355], the IC50 is less than 100 nM.

With `C=CC(=O)N1C[C@@H](F)[C@@H](N(C)c2nc(OC[C@@H]3C[C@@H](F)CN3C)nc3cc(-c4ccc(F)c5sc(N)c(C#N)c45)c(C(F)(F)F)cc23)C1` [Compound 356], the IC50 was less than 100 nM.

On to `C=CC(=O)N1C[C@@H](F)[C@@H](N(C)c2nc(OC[C@@H]3CC4(CC4)CN3C)nc3cc(-c4ccc(F)c5sc(N)c(C#N)c45)c(C(F)(F)F)cc23)C1` [Compound 357], for which the IC50 is less than 100 nM.

On to `C=CC(=O)N1CC[C@@H](N(C)c2nc(OC[C@@]34CCCN3C[C@H](F)C4)nc3c(F)c(-c4ccc(F)c5sc(N)c(C#N)c45)ccc23)[C@H]1C` [Compound 358, 4-(4-(((2R,3R)-1-acryloyl-2-methylpyrrolidin-3-yl)(methyl)amino)-8-fluoro-2-(((2R,7aS)-2-fluorotetrahydro-1H-pyrrolizin-7a(5H)-yl)methoxy)quinazolin-7-yl)-2-amino-7-fluorobenzo[b]thiophene-3-carbonitrile], for which the IC50 was less than 100 nM.

Regarding `C=CC(=O)N1C[C@@H](F)[C@@H](N(C)c2nc(OC[C@@]34CCCN3C[C@H](F)C4)nc3c(F)c(-c4ccc(F)c5sc(N)c(C#N)c45)ccc23)C1` [Compound 359], the IC50 is less than 100 nM.

For the compound `C=CC(=O)N1C[C@@H](F)[C@@H](N(C)c2nc(OC[C@@]34CCCN3C[C@H](F)C4)nc3c(F)c(-c4ccc(F)c5sc(N)nc45)c(C#N)cc23)C1` [Compound 360], the IC50 is 100 to 1000 nM.

In the case of `C=CC(=O)N1C[C@@H](F)[C@@H](N(C)c2nc(OC[C@@H]3C[C@@H](OC)CN3C)nc3cc(-c4ccc(F)c5sc(N)c(C#N)c45)c(C(F)(F)F)cc23)C1` [Compound 361], the IC50 is less than 100 nM.

As to `C=CC(=O)N1C[C@@H](F)[C@@H](N(CC)c2nc(OC[C@@]34CCCN3C[C@H](F)C4)nc3c(F)c(-c4ccc(F)c5sc(N)c(C#N)c45)c(C(F)(F)F)cc23)C1` [Compound 362], the IC50 was less than 100 nM.

In the case of `C=CC(=O)N1C[C@H](C)N(c2nc(OC[C@@H]3CCCN3C)nc3c(F)c(-c4ccc(F)c5sc(N)c(C#N)c45)c(C(F)(F)F)cc23)C[C@H]1C` [Compound 363, 4-(4-((2S,5R)-4-acryloyl-2,5-dimethylpiperazin-1-yl)-8-fluoro-2-(((S)-1-methylpyrrolidin-2-yl)methoxy)-6-(trifluoromethyl)quinazolin-7-yl)-2-amino-7-fluorobenzo[b]thiophene-3-carbonitrile], the IC50 was less than 100 nM.

As to `C=CC(=O)N1C[C@@H](F)[C@@H](N(C)c2nc(OC[C@@]34CCCN3C[C@H](F)C4)nc3c(F)c(-c4ccc(F)c5sc(N)c(C#N)c45)c(Cl)cc23)C1` [Compound 365], the IC50 is less than 100 nM.

Consider `C=CC(=O)N1C[C@H](C)N(c2nc(OCC34CCCN3CCC4)nc3c(F)c(-c4ccc(F)c5sc(N)c(C#N)c45)c(Cl)cc23)C[C@H]1C` [Compound 366], for which the IC50 was less than 100 nM.

`C=CC(=O)N1C[C@H](C)N(c2nc(OC[C@@]34CCCN3C[C@H](OC)C4)nc3c(F)c(-c4ccc(F)c5sc(N)c(C#N)c45)c(Cl)cc23)C[C@H]1C` [Compound 367]: the IC50 was less than 100 nM.

In the case of `C=CC(=O)N1C[C@@H](F)[C@@H](N(CC)c2nc(OC[C@@]34CCCN3C[C@H](F)C4)nc3c(F)c(-c4ccc(F)c5sc(N)c(C#N)c45)c(Cl)cc23)C1` [Compound 368], the IC50 was less than 100 nM.

For the compound `C=CC(=O)N1C[C@@H](F)[C@@H](N(C)c2nc(OCC34CCCN3CCC4)nc3cc(-c4ccc(F)c5sc(N)c(C#N)c45)c(C(F)(F)F)cc23)C1` [Compound 369], the IC50 was less than 100 nM.

Regarding `C=CC(=O)N1C[C@@H](F)[C@@H](N(CC)c2nc(OC[C@@]34CCCN3C[C@H](F)C4)nc3cc(-c4ccc(F)c5sc(N)c(C#N)c45)c(Cl)cc23)C1` [Compound 370], the IC50 is less than 100 nM.

In the case of `C=CC(=O)N1C[C@@H](F)[C@@H](N(C)c2nc(OC[C@@]34CCCN3C[C@H](F)C4)nc3cc(-c4ccc(F)c5sc(N)c(C#N)c45)c(C#N)cc23)C1` [Compound 372], the IC50 is less than 100 nM.

Consider `C=CC(=O)N1CC[C@@H](N(C)c2nc(OC[C@@]34CCCN3C[C@H](F)C4)nc3c(F)c(-c4ccc(F)c5sc(N)nc45)c(C#N)cc23)[C@H]1C` [Compound 373], for which the IC50 lay in the range of 100 to 1000 nM.

Take `C=CC(=O)N1C[C@@H](F)[C@@H](N(C)c2nc(OCC34CCCN3CCC4)nc3c(F)c(-c4ccc(F)c5sc(N)c(C#N)c45)c(C(F)(F)F)cc23)C1` [Compound 374]: the IC50 is less than 100 nM.

Turning to `C=CC(=O)N1C[C@@H](F)[C@@H](N(CC)c2nc(OC[C@@]34CCCN3C[C@H](F)C4)nc3cc(-c4ccc(F)c5sc(N)c(C#N)c45)c(C(F)(F)F)cc23)C1` [Compound 375], the IC50 is less than 100 nM.

As for `C=CC(=O)N1C[C@@H](F)[C@@H](N(CC)c2nc(OCC34CCCN3CCC4)nc3cc(-c4ccc(F)c5sc(N)c(C#N)c45)c(C(F)(F)F)cc23)C1` [Compound 376], the IC50 is less than 100 nM.

Take `C=CC(=O)N1C[C@@H](F)[C@@H](N(CC)c2nc(OC[C@@]34CCCN3C[C@H](F)C4)nc3cc(-c4ccc(F)c5sc(N)c(C#N)c45)ccc23)C1` [Compound 377]: the IC50 is less than 100 nM.

On to `C=CC(=O)N1C[C@H](C)N(c2nc(OC[C@@]34CCCN3C[C@H](F)C4)nc3c(F)c(-c4ccc(F)c5sc(NC(C)=O)c(C#N)c45)c(C(F)(F)F)cc23)C[C@H]1C` [Compound 378], for which the IC50 fell in the range of 100 to 1000 nM.

Regarding `C=CC(=O)N1C[C@@H](F)[C@@H](N(C)c2nc(OC[C@@]34CCCN3C[C@H](F)C4)nc3c(C#N)c(-c4ccc(F)c5sc(N)c(C#N)c45)c(Cl)cc23)C1` [Compound 379], the IC50 is less than 100 nM.

`C=CC(=O)N1C[C@@H](F)[C@@H](N(CC)c2nc(OC[C@@]34CCCN3C[C@H](F)C4)nc3c(C#N)c(-c4ccc(F)c5sc(N)c(C#N)c45)c(Cl)cc23)C1` [Compound 380]: the IC50 is less than 100 nM.

As to `C=CC(=O)N1CC[C@@H](N(C)c2nc(OC[C@@]34CCCN3C[C@H](F)C4)nc3c(F)c(-c4ccc(F)c5sc(N)c(C#N)c45)c(C(F)(F)F)cc23)[C@H]1C` [Compound 381, 4-(4-(((2R,3R)-1-acryloyl-2-methylpyrrolidin-3-yl)(methyl)amino)-8-fluoro-2-(((2R,7aS)-2-fluorotetrahydro-1H-pyrrolizin-7a(5H)-yl)methoxy)-6-(trifluoromethyl)quinazolin-7-yl)-2-amino-7-fluorobenzo[b]thiophene-3-carbonitrile], the IC50 is less than 100 nM.

Take `C=CC(=O)N1C[C@H](C)N(c2ncnc3c(F)c(-c4ccc(F)c5sc(N)c(C#N)c45)c(C(F)(F)F)cc23)C[C@H]1C` [Compound 382]: the IC50 was less than 100 nM.

Turning to `C=CC(=O)N1CC[C@@H](N(C)c2ncnc3c(F)c(-c4ccc(F)c5sc(N)c(C#N)c45)c(C(F)(F)F)cc23)C1` [Compound 383, 4-(4-(((R)-1-acryloylpyrrolidin-3-yl)(methyl)amino)-8-fluoro-6-(trifluoromethyl)quinazolin-7-yl)-2-amino-7-fluorobenzo[b]thiophene-3-carbonitrile], the IC50 is less than 100 nM.

For the compound `C=CC(=O)N1CC[C@@H](N(C)c2nc(OC)nc3c(F)c(-c4ccc(F)c5sc(N)c(C#N)c45)c(C(F)(F)F)cc23)C1` [Compound 384], the IC50 is less than 100 nM.

Turning to `C=CC(=O)N1C[C@H](C)N(c2nc(OC)nc3c(F)c(-c4ccc(F)c5sc(N)c(C#N)c45)c(C(F)(F)F)cc23)C[C@H]1C` [Compound 385], the IC50 was less than 100 nM.

With `C=CC(=O)N1C[C@@H](F)[C@@H](N(CC)c2nc(OC[C@@]34CCCN3C[C@H](F)C4)nc3cc(-c4ccc(F)c5sc(N)c(C#N)c45)c(C#N)cc23)C1` [Compound 386], the IC50 was less than 100 nM.
